“And” between values parts separate entries of the source, which are not always exact repeats. Identical values can stand only once. Like-named read-outs stand apart in the source and are kept apart here.
Assays:
[1] = molecular target: CarD·RNAP binding (CarD association with RPo)
[2] = Turbidity test (OD620) for aggregation; format: physicochemical
RNAP = settings: cited from earlier work

CarD·RNAP binding (CarD association with RPo), sequence (P9WGY5 whole entry): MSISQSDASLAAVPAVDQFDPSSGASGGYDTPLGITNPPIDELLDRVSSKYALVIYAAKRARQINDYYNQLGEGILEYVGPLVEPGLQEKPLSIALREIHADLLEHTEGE
CarD·RNAP binding (CarD association with RPo), sequence (P9WGI1 whole entry, further chain): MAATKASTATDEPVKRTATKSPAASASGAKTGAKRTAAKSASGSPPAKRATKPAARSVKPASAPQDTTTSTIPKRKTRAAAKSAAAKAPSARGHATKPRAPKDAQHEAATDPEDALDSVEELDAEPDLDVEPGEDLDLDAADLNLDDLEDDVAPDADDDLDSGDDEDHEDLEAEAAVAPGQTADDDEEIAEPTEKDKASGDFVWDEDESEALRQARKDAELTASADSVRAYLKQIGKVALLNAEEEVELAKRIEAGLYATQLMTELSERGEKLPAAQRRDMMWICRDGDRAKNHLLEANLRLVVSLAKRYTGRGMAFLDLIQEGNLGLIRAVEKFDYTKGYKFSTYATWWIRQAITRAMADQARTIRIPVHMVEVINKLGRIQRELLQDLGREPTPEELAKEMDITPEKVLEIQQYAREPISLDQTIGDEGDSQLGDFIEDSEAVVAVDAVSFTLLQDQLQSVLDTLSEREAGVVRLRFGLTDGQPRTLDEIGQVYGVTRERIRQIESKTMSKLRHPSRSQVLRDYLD
CarD·RNAP binding (CarD association with RPo), sequence (P9WGY7 whole entry, further chain): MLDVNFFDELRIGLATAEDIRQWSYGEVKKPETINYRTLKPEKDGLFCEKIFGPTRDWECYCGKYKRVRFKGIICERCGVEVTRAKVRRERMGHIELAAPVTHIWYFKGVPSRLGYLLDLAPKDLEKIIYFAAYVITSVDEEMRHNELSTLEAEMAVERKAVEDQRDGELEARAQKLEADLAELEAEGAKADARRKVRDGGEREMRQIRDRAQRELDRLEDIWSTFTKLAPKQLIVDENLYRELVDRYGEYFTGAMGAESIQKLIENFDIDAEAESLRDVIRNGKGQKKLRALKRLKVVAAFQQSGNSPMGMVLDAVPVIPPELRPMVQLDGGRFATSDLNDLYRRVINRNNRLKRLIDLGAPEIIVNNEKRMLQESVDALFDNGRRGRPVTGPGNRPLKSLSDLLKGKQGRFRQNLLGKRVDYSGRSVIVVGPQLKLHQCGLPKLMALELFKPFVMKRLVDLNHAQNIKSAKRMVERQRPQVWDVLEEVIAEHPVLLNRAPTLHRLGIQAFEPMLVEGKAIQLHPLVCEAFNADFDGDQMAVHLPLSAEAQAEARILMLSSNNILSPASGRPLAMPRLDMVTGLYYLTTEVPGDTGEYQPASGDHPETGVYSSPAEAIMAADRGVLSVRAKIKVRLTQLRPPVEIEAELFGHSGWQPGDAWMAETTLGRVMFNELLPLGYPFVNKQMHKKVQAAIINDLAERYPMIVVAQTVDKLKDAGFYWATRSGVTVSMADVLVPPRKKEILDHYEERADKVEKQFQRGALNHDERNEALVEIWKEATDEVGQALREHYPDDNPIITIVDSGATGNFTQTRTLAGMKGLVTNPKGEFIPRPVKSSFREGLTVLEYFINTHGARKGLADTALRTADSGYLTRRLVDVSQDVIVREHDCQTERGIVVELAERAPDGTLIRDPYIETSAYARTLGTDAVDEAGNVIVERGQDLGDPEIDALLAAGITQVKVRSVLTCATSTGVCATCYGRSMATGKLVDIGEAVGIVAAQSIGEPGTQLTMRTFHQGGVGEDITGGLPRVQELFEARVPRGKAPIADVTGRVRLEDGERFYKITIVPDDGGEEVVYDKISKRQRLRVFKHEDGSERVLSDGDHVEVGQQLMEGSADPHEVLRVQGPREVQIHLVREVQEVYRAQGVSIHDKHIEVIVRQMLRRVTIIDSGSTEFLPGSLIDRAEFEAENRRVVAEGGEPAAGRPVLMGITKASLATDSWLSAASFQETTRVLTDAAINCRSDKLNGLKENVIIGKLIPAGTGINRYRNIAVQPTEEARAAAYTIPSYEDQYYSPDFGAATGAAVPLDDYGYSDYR
CarD·RNAP binding (CarD association with RPo), sequence (P9WGY9 whole entry, further chain): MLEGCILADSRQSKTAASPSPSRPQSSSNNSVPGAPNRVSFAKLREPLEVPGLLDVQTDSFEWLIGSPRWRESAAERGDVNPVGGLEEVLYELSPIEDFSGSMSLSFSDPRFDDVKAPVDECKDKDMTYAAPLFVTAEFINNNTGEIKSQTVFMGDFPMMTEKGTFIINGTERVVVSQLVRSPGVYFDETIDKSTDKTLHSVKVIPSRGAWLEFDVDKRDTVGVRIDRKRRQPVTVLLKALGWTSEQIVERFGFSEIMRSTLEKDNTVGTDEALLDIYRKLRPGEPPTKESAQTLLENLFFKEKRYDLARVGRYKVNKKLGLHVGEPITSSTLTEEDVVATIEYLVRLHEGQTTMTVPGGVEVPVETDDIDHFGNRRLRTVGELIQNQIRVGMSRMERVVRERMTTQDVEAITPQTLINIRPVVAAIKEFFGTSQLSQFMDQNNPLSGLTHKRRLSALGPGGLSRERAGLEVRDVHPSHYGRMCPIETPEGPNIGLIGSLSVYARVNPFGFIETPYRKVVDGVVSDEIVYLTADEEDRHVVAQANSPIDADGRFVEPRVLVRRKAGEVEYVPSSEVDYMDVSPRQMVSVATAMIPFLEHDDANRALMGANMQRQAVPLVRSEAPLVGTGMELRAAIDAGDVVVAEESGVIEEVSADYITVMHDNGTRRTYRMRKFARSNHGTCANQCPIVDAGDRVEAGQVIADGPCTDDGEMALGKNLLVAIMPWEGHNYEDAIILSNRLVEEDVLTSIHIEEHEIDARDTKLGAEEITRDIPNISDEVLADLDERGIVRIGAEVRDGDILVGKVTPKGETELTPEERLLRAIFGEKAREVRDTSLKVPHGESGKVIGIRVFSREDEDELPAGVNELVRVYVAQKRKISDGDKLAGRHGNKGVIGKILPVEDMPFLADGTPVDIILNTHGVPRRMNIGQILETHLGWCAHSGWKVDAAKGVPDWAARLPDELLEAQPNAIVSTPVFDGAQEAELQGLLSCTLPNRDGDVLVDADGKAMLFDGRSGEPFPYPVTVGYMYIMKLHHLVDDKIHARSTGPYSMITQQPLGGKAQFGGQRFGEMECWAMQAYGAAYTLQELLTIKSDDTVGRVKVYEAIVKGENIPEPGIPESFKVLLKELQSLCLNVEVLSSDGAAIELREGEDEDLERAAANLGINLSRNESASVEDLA
CarD·RNAP binding (CarD association with RPo), sequence (P9WGZ1 whole entry, further chain): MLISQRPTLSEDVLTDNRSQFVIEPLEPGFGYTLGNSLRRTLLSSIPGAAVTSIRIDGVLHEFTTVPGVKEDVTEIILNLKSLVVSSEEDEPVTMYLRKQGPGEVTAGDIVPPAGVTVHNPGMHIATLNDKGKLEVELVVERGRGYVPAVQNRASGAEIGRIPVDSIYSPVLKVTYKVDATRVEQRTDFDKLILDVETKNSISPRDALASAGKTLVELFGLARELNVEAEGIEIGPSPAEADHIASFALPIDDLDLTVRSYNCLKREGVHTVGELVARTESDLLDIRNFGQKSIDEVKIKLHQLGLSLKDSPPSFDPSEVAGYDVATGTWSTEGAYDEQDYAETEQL

Structure (SMILES)	IC50 [1]	Concentration above which compound is prone to aggregation (turbidity curve) [2]	IC50 (RNAP; read-out: IC50 In Vitro Transcription +RbpA)	IC50 (RNAP; read-out: IC50 In Vitro Transcription -RbpA)
Cc1cc2c(NC(=O)Nc3ccccc3)cccc2nn1 [CCG-237488]	20 µM	–	–	–
O=C(O)c1ccc(-c2nc3ccc(-c4ccc5nc(-c6ccc(C(=O)O)cc6)[nH]c5c4)cc3[nH]2)cc1 [CCG-249580]	32 µM and 45 µM	higher than 34 µM	–	–
CCc1c(Cl)c(O)c(Cl)c(O)c1C(=O)O[C@H]1[C@H](O)[C@H](OC)[C@H](OC/C2=C\C=C\C[C@H](O)/C(C)=C/[C@H](CC)[C@@H](O[C@@H]3OC(C)(C)[C@@H](OC(=O)C(C)C)[C@H](O)[C@@H]3O)/C(C)=C/C(C)=C/C[C@@H]([C@@H](C)O)OC2=O)O[C@@H]1C [Fidaxomicin]	–	–	0.21 µM	7 µM

From article PMC7718890 (Scientific Reports, 2020)
